A short description of data set [1]: CLint estimates using human liver microsomes (Method 4). Conditions: pH 7.4, 1 μM compound, read-out: Mics - CLint (HLM CLint). It counts as in vitro ADME. The procedure:
Method 4: Determination of CLint Estimates Using Human liver microsomes Test compounds (final concentration=1 μM; final DMSO concentration=0.1%) were incubated in 0.1 M phosphate buffer pH 7.4 with human liver microsomes (0.5 mg of protein/mL) at 37° C. Reactions were started by addition of NADPH in 0.1 M phosphate buffer pH 7.4 (final concentration 1 mM). 40 μL aliquots were removed at 2, 5, 10, 15, 20, 30, 40 and 50 min. Reactions were quenched in 80 μL of ice-cold methanol. Samples were subsequently frozen overnight then centrifuged at 3500 rpm for 20 min at 4° C. The supernatants were removed and transferred into analytical plates and analysed by LC/MS/MS. LC/MS/MS Method: All samples were analysed on a Waters Acquity I-Class coupled to a Waters Xevo TQD mass spectrometer. A Waters BEH C18 2.1×50 mm 1.7 μm column was used and mobile phases were water and methanol containing 0.1% formic acid as modifier. Analysis was by multiple reaction monitoring and conditions were optimised for each test compound. Data Analyses: From a plot of 1n peak area against time, the gradient of the line is determined. Subsequently, half-life and intrinsic clearance are calculated using the following equations. [formula] [formula] [formula] where V=Incubation volume (μL)/number of cells Method 5: Determination of Kinetic Solubility (in PBS Buffer)

For a further data set, the target named is T1, Wee-1 kinase (Homo sapiens, UniProt P30291).
T1 construct: purchased Invitrogen PV3817
T1 sequence (P30291 whole entry): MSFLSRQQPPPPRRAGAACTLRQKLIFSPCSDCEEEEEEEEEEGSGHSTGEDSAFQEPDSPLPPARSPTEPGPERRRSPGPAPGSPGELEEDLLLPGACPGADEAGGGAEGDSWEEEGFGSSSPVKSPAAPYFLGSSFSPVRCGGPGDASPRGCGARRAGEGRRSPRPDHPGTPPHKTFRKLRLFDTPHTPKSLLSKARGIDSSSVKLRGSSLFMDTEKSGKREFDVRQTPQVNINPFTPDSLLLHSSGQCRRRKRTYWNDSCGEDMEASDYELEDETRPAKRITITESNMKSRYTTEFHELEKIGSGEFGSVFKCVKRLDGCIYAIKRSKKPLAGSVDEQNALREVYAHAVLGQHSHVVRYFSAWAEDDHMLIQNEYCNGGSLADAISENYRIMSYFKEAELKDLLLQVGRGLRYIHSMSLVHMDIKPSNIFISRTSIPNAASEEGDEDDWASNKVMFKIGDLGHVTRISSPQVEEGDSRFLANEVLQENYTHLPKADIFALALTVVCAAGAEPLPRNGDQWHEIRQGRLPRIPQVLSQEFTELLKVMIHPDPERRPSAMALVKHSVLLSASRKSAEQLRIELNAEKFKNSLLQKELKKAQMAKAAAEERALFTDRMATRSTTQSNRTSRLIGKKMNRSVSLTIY
As to the kind of experiment: Measurement of Wee-1 kinase activity (ADP-Glo luminescent kit). It counts as biochemical. How it is done: Method 1: Measurement of Wee-1 Kinase Activity
In the measurement of Wee-1 activity, a commercial peptide Poly(Lys Tyr (4:1)) hydrobromide was purchased from Sigma Aldrich and used as the substrate. Activated Wee-1 kinase was purchased from Invitrogen (PV3817) and an ADP-Glo luminescent kit was purchased from Promega.
All reactions took place in […] volumes in reaction buffer containing 40 mM Tris-HCl and 20 mM magnesium chloride, supplemented with 0.1 mg/mL bovine serum albumin and 2 mM DTT. Compounds were serially diluted in buffer and 5 μL of each concentration pipetted into a white 384 well plate (Sigma Aldrich M6186). A 5 μL aliquot of the Wee-1 enzyme was added to each well and the plate centrifuged for 1 min to ensure mixing of the enzyme and inhibitor.
The plate was incubated at room temperature for 30 minutes before the addition of 2.0 μg/mL of substrate and 30 μM ATP in a 5 μL aliquot. The plate was centrifuged for one minute and incubated for 1 h at RT.
15 µL of ADP-Glo stop reagent was added to each well to quench the reaction and deplete unconverted ATP. The plate was incubated for a further 40 min in the dark at RT.
30 μL of ADP-Glo kinase detection reagent was added to each well, converting ADP to ATP, catalysing the generation of luciferin by luciferase. The plate was shaken for 1 min, and incubated in the dark for an additional hour.
Luminescence from each well was detected using the Biotek Synergy4 HD plate reader and the percentage inhibition of kinase activity calculated for each inhibitor tested. Positive (kinase only) and negative (no kinase) controls were added to each plate to ensure specific interaction of kinase and inhibitor. The IC50 concentration for each inhibitor was calculated by plotting the percentage kinase inhibition against concentration of inhibitor and the curve generated by non-linear regression fitting.
(In general: In ADP-Glo the light output rises with the ADP produced.)

Each structure is given as a SMILES string. A value given as a limit tells only on which side of the number the result lay.

Usually IC50 stands for the point on the concentration scale where inhibition reaches its midpoint. Take `CN1CN(c2c(Cl)cccc2Cl)C(=O)c2cnc(Nc3ccc(N4CCN(C)[C@H](CO)C4)cc3)nc21` [Example 49, (S)-3-(2,6-dichlorophenyl)-7-((4-(3-(hydroxymethyl)-4-methylpiperazin-1-yl)phenyl)amino)-1-methyl-2,3-dihydropyrimido[4,5-d]pyrimidin-4(1H)-one]: the microsomal CLint at 1 μM in data set [1] is 15 to 50 µL/min/mg. At Wee-1 kinase, the IC50 lay in the range of 10 to 100 nM.

As for `CN1CN(c2c(Cl)cccc2Cl)C(=O)c2cnc(Nc3ccc(C4CCNCC4)cc3)nc21` [Example 119, 3-(2,6-dichlorophenyl)-1-methyl-7-((4-(piperidin-4-yl)phenyl)amino)-2,3-dihydropyrimido[4,5-d]pyrimidin-4(1H)-one], the microsomal CLint at 1 μM in data set [1] is no more than 15 µL/min/mg. Besides, the IC50 on Wee-1 kinase fell in the range of 10 to 100 nM.

Turning to `COc1cc(Nc2ncc3c(n2)N(C)CN(c2c(Cl)cccc2Cl)C3=O)ccc1N1C[C@@H]2C[C@H]1CN2C` [Example 84, 3-(2,6-dichlorophenyl)-7-((3-methoxy-4-((1S,4S)-5-methyl-2,5-diazabicyclo[2.2.1]heptan-2-yl)phenyl)amino)-1-methyl-2,3-dihydropyrimido[4,5-d]pyrimidin-4(1H)-one], in data set [1], the microsomal CLint at 1 μM was 15 to 50 µL/min/mg. Also, on Wee-1 kinase, the IC50 is 10 to 100 nM.

As for `CC(=O)N1CCN(c2ccc(Nc3ncc4c(n3)N(C)CN(c3c(Cl)cccc3Cl)C4=O)cc2CN2CCCC2)CC1` [Example 138, 7-((4-(4-acetylpiperazin-1-yl)-3-(pyrrolidin-1-ylmethyl)phenyl)amino)-3-(2,6-dichlorophenyl)-1-methyl-2,3-dihydropyrimido[4,5-d]pyrimidin-4(1H)-one], in data set [1], the microsomal CLint at 1 μM is no more than 15 µL/min/mg. On Wee-1 kinase, the IC50 was no more than 10 nM.

As for `CN1CN(c2c(Cl)cccc2Cl)C(=O)c2cnc(Nc3ccc(N4CCN(CCO)CC4)cc3)nc21` [Example 116, 3-(2,6-dichlorophenyl)-7-((4-(4-(2-hydroxyethyl)piperazin-1-yl)phenyl)amino)-1-methyl-2,3-dihydropyrimido[4,5-d]pyrimidin-4(1H)-one], the microsomal CLint at 1 μM in data set [1] was 15 to 50 µL/min/mg. The IC50 on Wee-1 kinase lay in the range of 10 to 100 nM.

Turning to `C[C@@H]1CN(c2ccc(Nc3ncc4c(n3)N(c3ccn(C)n3)CN(c3c(Cl)cccc3Cl)C4=O)cc2)CCN1` [Example 58, (R)-3-(2,6-dichlorophenyl)-1-(1-methyl-1H-pyrazol-3-yl)-7-((4-(3-methylpiperazin-1-yl)phenyl)amino)-2,3-dihydropyrimido[4,5-d]pyrimidin-4(1H)-one], in data set [1], the microsomal CLint at 1 μM is no more than 15 µL/min/mg. Besides, the IC50 on Wee-1 kinase was no more than 10 nM.

As to `Cc1cc(Nc2ncc3c(n2)N(C)CN(c2c(Cl)cccc2Cl)C3=O)ccc1N1C[C@H]2C[C@@H]1CN2C` [Example 121, 3-(2,6-dichlorophenyl)-1-methyl-7-((3-methyl-4-((1R,4R)-5-methyl-2,5-diazabicyclo[2.2.1]heptan-2-yl)phenyl)amino)-2,3-dihydropyrimido[4,5-d]pyrimidin-4(1H)-one], the microsomal CLint at 1 μM in data set [1] was 15 to 50 µL/min/mg. Also, the IC50 on Wee-1 kinase was in the range of 10 to 100 nM.

Consider `CN1CCC(Nc2cccc(Nc3ncc4c(n3)N(C)CN(c3c(Cl)cccc3Cl)C4=O)c2)CC1` [Example 91, 3-(2,6-dichlorophenyl)-1-methyl-7-((3-((1-methylpiperidin-4-yl)amino)phenyl)amino)-2,3-dihydropyrimido[4,5-d]pyrimidin-4(1H)-one], for which the microsomal CLint at 1 μM in data set [1] is no more than 15 µL/min/mg. The IC50 on Wee-1 kinase lay within 10 to 100 nM.

With `COCc1cc(Nc2ncc3c(n2)N(C)CN(c2ccccc2Cl)C3=O)ccc1N1CCNCC1` [Example 108, 3-(2-chlorophenyl)-7-((3-(methoxymethyl)-4-(piperazin-1-yl)phenyl)amino)-1-methyl-2,3-dihydropyrimido[4,5-d]pyrimidin-4(1H)-one], the microsomal CLint at 1 μM in data set [1] was no more than 15 µL/min/mg. The IC50 on Wee-1 kinase lay in the range of 10 to 100 nM.

Regarding `CN1CN(c2c(Cl)cccc2Cl)C(=O)c2cnc(Nc3ccc(N4CCCCC4)c(CO)c3)nc21` [Example 131, 3-(2,6-dichlorophenyl)-7-((3-(hydroxymethyl)-4-(piperidin-1-yl)phenyl)amino)-1-methyl-2,3-dihydropyrimido[4,5-d]pyrimidin-4(1H)-one], the microsomal CLint at 1 μM in data set [1] was no less than 50 µL/min/mg. Besides, at Wee-1 kinase, the IC50 was no less than 100 nM.

Consider `Cc1cccc(Cl)c1N1CN(C)c2nc(Nc3ccc(N4C[C@H](C)NC[C@H]4C)cc3)ncc2C1=O` [Example 102, 3-(2-chloro-6-methylphenyl)-7-((4-((2R,5S)-2,5-dimethylpiperazin-1-yl)phenyl)amino)-1-methyl-2,3-dihydropyrimido[4,5-d]pyrimidin-4(1H)-one], for which the microsomal CLint at 1 μM in data set [1] was no more than 15 µL/min/mg. Besides, the IC50 at Wee-1 kinase lay within 10 to 100 nM.

As to `COCc1cc(Nc2ncc3c(n2)N(C)CN(c2c(Cl)cccc2Cl)C3=O)ccc1N1CCN(C)[C@H](C)C1` [Example 67, (R)-3-(2,6-dichlorophenyl)-7-((4-(3,4-dimethylpiperazin-1-yl)-3-(methoxymethyl)phenyl)amino)-1-methyl-2,3-dihydropyrimido[4,5-d]pyrimidin-4(1H)-one], the microsomal CLint at 1 μM in data set [1] is no more than 15 µL/min/mg. Further, on Wee-1 kinase, the IC50 is 10 to 100 nM.

`COC[C@H]1CNCCN1c1ccc(Nc2ncc3c(n2)N(C)CN(c2c(Cl)cccc2Cl)C3=O)cc1` [Example 129, (R)-3-(2,6-dichlorophenyl)-7-((4-(2-(methoxymethyl)piperazin-1-yl)phenyl)amino)-1-methyl-2,3-dihydropyrimido[4,5-d]pyrimidin-4(1H)-one]: the microsomal CLint at 1 μM in data set [1] is no more than 15 µL/min/mg. Further, the half-inhibitory concentration (IC50) at Wee-1 kinase is no more than 10 nM.

As to `CN1CN(c2c(Cl)cccc2Cl)C(=O)c2cnc(Nc3ccc(N4C[C@@H]5C[C@H]4CN5)cc3)nc21` [Example 39, 7-((4-((1S,4S)-2,5-diazabicyclo[2.2.1]heptan-2-yl)phenyl)amino)-3-(2,6-dichlorophenyl)-1-methyl-2,3-dihydropyrimido[4,5-d]pyrimidin-4(1H)-one], the microsomal CLint at 1 μM in data set [1] is no more than 15 µL/min/mg. Also, the IC50 on Wee-1 kinase lay in the range of 10 to 100 nM.

`CNCc1cc(Nc2ncc3c(n2)N(C)CN(c2c(Cl)cccc2Cl)C3=O)ccc1F` [Example 152, 3-(2,6-dichlorophenyl)-7-((4-fluoro-3-((methylamino)methyl)phenyl)amino)-1-methyl-2,3-dihydropyrimido[4,5-d]pyrimidin-4(1H)-one]: in data set [1], the microsomal CLint at 1 μM is no more than 15 µL/min/mg. Besides, on Wee-1 kinase, the IC50 is no less than 100 nM.

Take `CN1CN(c2c(Cl)cccc2Cl)C(=O)c2cnc(Nc3ccc(N4CCN(C)[C@@H](CO)C4)cc3)nc21` [Example 34, (R)-3-(2,6-dichlorophenyl)-7-((4-(3-(hydroxymethyl)-4-methylpiperazin-1-yl)phenyl)amino)-1-methyl-2,3-dihydropyrimido[4,5-d]pyrimidin-4(1H)-one]: the microsomal CLint at 1 μM in data set [1] is 15 to 50 µL/min/mg. The IC50 on Wee-1 kinase is 10 to 100 nM.

As for `C[C@@H]1CN(c2ccc(Nc3ncc4c(n3)N(C)CN(c3c(Cl)cccc3Cl)C4=O)cc2)CCN1C` [Example 32, (R)-3-(2,6-dichlorophenyl)-7-((4-(3,4-dimethylpiperazin-1-yl)phenyl)amino)-1-methyl-2,3-dihydropyrimido[4,5-d]pyrimidin-4(1H)-one], the microsomal CLint at 1 μM in data set [1] was 15 to 50 µL/min/mg. The IC50 at Wee-1 kinase lay within 10 to 100 nM.

For the compound `CN1CN(c2c(Cl)cccc2Cl)C(=O)c2cnc(Nc3ccc(N4CC5COCC(C4)N5)cc3)nc21` [Example 64, 7-((4-(3-oxa-7,9-diazabicyclo[3.3.1]nonan-7-yl)phenyl)amino)-3-(2,6-dichlorophenyl)-1-methyl-2,3-dihydropyrimido[4,5-d]pyrimidin-4(1H)-one], the microsomal CLint at 1 μM in data set [1] is no more than 15 µL/min/mg. For the same compound, the IC50 at Wee-1 kinase lay in the range of 10 to 100 nM.

For `CN1CN(c2ccccc2Cl)C(=O)c2cnc(Nc3ccc(N4CCNC(C)(C)C4)cc3)nc21` [Example 106, 3-(2-chlorophenyl)-7-((4-(3,3-dimethylpiperazin-1-yl)phenyl)amino)-1-methyl-2,3-dihydropyrimido[4,5-d]pyrimidin-4(1H)-one], the microsomal CLint at 1 μM in data set [1] was no more than 15 µL/min/mg. Moreover, the IC50 on Wee-1 kinase was in the range of 10 to 100 nM.
